Data: PMC11266321 (EJNMMI Radiopharmacy and Chemistry, 2024)
Values joined by “and” are separate entries in the source; they are usually repeats but may differ in a detail not shown here. Equal values may be shown once.

What was measured:
[1] = biological target: T1, Glutamate (NMDA glycine site) (Homo sapiens, UniProt Q05586); experiment: Radioligand binding inhibition, Glutamate NMDA glycine site; conditions: 10 µM; radioligand [^3H]MDL105,519; mean of duplicate
T1 construct: Sekisui Medical (contract laboratory)
Protocol: (§1) Interaction of MMP with 28 binding sites was examined, including major classes of neurotransmitter receptor, uptake system, and ion channels (Sekisui Medical, Naka, Japan). MMP was tested in all assays at 10 µM. […] 10.2.3 (GraphPad Software, San Diego, CA). Each determination was made in duplicate.
(§2) Test substance concentration : 10 µM, positive substance concentration : 10 µM
(§3) Data are expressed as the mean values of duplicate samples.
(§4) The % inhibition was calculated from “100 – binding ratio”.
(§5) Binding ratio: [(B - N) / (B0 - N)] × 100 (%)
(§6) B: Bound radioactivity in the presence of test substance and positive substance (individual value)
(§7) B0: Total bound radioactivity in the absence of test substance and positive substance (mean value)
(§8) N: Non-specific bound radioactivity (mean value)

Adenosine A2 = biological target: T2, Adenosine A2 (Homo sapiens, UniProt P29274); experiment: Radioligand binding inhibition, Adenosine A2; conditions: 10 µM; radioligand [^3H]CGS21680; mean of duplicate
T2 construct: Sekisui Medical (contract laboratory)
Protocol: (§9) Interaction of MMP with 28 binding sites was examined, including major classes of neurotransmitter receptor, uptake system, and ion channels (Sekisui Medical, Naka, Japan). MMP was tested in all assays at 10 µM. […] Each determination was made in duplicate.
as §2, §3, §4, §5, §6, §7, §8

Dopamine D1 = biological target: T3, Dopamine D1 (Homo sapiens, UniProt P21728); experiment: Radioligand binding inhibition, Dopamine D1; conditions: 10 µM; radioligand [^3H]SCH23390; mean of duplicate
T3 construct: Sekisui Medical (contract laboratory)
Protocol: as §9, §2, §3, §4, §5, §6, §7, §8

[2] = test system: other brain neuroreceptors; experiment: Receptor selectivity panel, other binding sites; conditions: 10 µM; binding sites other than sigma
Protocol: as §1

Histamine H2 = biological target: T4, Histamine H2 (Homo sapiens, UniProt P25021); experiment: Radioligand binding inhibition, Histamine H2; conditions: 10 µM; radioligand [^125I]Iodoaminopotentidine; mean of duplicate
T4 construct: Sekisui Medical (contract laboratory)
Protocol: as §1, §2, §3, §4, §5, §6, §7, §8

Histamine H3 = biological target: T5, Histamine H3 (Homo sapiens, UniProt Q9Y5N1); experiment: Radioligand binding inhibition, Histamine H3; conditions: 10 µM; radioligand [^3H]N-methyl-histamine; mean of duplicate
T5 construct: Sekisui Medical (contract laboratory)
Protocol: as §9, §2, §3, §4, §5, §6, §7, §8

Nicotinic (neuronal) = assay type: binding; conditions: 10 µM; radioligand [^3H]Cytisine; mean of duplicate
GABA A (agonist site) = experiment: Radioligand binding inhibition, GABA A agonist site; conditions: 10 µM; radioligand [^3H]Muscimol; mean of duplicate
Protocol: as §1, §2, §3, §4, §5, §6, §7, §8

Muscarinic M1 = biological target: T6, Muscarinic M1 (Homo sapiens, UniProt P11229); assay type: binding; conditions: 10 µM; radioligand [^3H]Pirenzepine; mean of duplicate
T6 construct: Sekisui Medical (contract laboratory)

Muscarinic M2 = biological target: T7, Muscarinic M2 (Homo sapiens, UniProt P08172); experiment: Radioligand binding inhibition, Muscarinic M2; conditions: 10 µM; radioligand [^3H]AF-DX384; mean of duplicate
T7 construct: Sekisui Medical (contract laboratory)
Protocol: as §9, §2, §3, §4, §5, §6, §7, §8

Histamine H1 (central) = biological target: T8, Histamine H1 (central) (Homo sapiens, UniProt P35367); assay type: binding; conditions: 10 µM; radioligand [^3H]Pyrilamine; mean of duplicate
T8 construct: Sekisui Medical (contract laboratory)

[3] = test system: Salmonella typhimurium (TA98, TA100, TA1535, and TA1537); experiment: Ames test (reverse bacterial mutation test), Salmonella; assay type: cell-based; conditions: with and without S9 mixture, 78.1–5000 µg/plate
Source text: The MMP was custom synthesized by the Nard Institute (Kobe, Japan) using methods described previously (Toyohara et al. [2020a]). All other chemical reagents were obtained from commercial sources. Male ddY mice were obtained from Japan SLC (Hamamatsu, Japan). Sprague–Dawley rats [Crl: CD(SD)] were obtained from […] (Yokohama, Japan). Animal studies were approved by the Animal Care and Use Committee of the Tokyo Metropolitan Institute for Geriatrics and Gerontology (Approval Nos. 22,015 and 23,007) and Nihon Bioresearch (Hashima, Japan; Approval Nos. 430,085 and 430,086). Acute toxicity studies were performed under the “Revisions of the Guidelines for Single and Repeated Dose Toxicity Studies” (PMDA, 1993). Ames test was performed under the “Guidance on Genotoxicity Testing and Data Interpretation for Pharmaceuticals Intended for Human Use” (PMDA, 2012).
Mutagenicity tests were performed at the Hashima Research Center, Nihon Bioresearch, under non-GLP control. MMP was tested for mutagenicity by the Ames test with four histidine-requiring strains of Salmonella typhimurium (TA98, TA100, TA1535, and TA1537) and one strain of Escherichia coli (WP2uvrA), with and without the S9 mixture, at a dose range of 78.1–5000 µg/plate according to the standard method.

Opiate (non-selective) = experiment: Radioligand binding inhibition, Opiate; conditions: 10 µM; radioligand [^3H]Naloxone; mean of duplicate
Protocol: as §1, §2, §3, §4, §5, §6, §7, §8

Serotonin 5HT3 (human) = biological target: T9, Serotonin 5HT3 (human) (Homo sapiens, UniProt P46098); experiment: Radioligand binding inhibition, Serotonin 5HT3; conditions: 10 µM; radioligand [^3H]GR65630; mean of duplicate
T9 construct: Sekisui Medical (contract laboratory that ran the panel)
Protocol: as §1, §2, §3, §4, §5, §6, §7, §8

[4] = test system: α2-Adrenergic (non-selective); experiment: Radioligand binding inhibition, α2-Adrenergic; conditions: 10 µM; radioligand [^3H]Rauwolscine; mean of duplicate
Protocol: as §1, §2, §3, §4, §5, §6, §7, §8

Glutamate (Ketamine) = experiment: Radioligand binding inhibition, Glutamate (Ketamine); conditions: 10 µM; radioligand [^3H]Kainic acid; mean of duplicate
Sigma (non-selective) = experiment: Radioligand binding inhibition and competitive inhibition curve, sigma receptor
Protocol: as §9
Data are expressed as mean values of duplicate samples.
as §2, §3, §4, §5, §6, §7, §8

T6 sequence (P11229 whole entry): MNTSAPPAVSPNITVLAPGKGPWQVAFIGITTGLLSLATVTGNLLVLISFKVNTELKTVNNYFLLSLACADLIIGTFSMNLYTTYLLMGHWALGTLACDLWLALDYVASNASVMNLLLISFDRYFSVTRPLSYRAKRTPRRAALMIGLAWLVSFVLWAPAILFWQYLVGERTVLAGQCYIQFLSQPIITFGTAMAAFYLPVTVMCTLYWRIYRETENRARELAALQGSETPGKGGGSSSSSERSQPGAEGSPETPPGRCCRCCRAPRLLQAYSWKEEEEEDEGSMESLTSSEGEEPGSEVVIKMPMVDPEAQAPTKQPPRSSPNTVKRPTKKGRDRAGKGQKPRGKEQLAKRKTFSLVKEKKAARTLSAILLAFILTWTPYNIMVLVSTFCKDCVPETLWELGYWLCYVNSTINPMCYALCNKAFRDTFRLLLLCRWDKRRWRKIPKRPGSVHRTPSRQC
T2 sequence (P29274 whole entry): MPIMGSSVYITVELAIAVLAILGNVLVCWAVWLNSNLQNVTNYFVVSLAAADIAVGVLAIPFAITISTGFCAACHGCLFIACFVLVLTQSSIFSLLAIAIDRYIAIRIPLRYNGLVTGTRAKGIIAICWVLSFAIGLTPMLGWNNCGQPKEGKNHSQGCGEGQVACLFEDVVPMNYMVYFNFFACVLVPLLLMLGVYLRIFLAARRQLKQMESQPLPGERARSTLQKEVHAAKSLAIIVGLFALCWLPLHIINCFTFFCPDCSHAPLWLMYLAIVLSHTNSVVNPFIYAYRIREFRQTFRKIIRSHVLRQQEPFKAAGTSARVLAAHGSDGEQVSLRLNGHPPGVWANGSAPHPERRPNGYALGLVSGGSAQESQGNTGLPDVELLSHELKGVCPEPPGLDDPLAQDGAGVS
T7 sequence (P08172 whole entry): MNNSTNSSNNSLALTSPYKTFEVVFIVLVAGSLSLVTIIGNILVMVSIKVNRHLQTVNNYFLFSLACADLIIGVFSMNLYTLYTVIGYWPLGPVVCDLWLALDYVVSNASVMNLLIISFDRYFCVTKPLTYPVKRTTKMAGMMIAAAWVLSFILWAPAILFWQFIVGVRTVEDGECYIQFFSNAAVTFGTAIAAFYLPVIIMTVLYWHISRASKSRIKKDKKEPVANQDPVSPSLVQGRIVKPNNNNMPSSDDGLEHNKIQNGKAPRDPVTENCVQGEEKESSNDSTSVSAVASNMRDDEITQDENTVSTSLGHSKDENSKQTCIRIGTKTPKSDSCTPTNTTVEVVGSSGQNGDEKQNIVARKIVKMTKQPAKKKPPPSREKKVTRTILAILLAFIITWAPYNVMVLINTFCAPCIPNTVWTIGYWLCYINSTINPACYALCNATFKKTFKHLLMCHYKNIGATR
T4 sequence (P25021 whole entry): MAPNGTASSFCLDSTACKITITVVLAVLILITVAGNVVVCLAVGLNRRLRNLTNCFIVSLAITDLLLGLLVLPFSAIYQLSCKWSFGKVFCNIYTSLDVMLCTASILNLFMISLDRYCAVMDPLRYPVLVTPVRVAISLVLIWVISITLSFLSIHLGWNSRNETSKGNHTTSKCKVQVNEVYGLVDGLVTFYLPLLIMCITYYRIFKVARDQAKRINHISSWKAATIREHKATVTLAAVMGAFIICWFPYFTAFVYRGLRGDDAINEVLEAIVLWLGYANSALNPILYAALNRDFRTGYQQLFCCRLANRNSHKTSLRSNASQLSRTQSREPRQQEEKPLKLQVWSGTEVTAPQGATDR
T9 sequence (P46098 24-478): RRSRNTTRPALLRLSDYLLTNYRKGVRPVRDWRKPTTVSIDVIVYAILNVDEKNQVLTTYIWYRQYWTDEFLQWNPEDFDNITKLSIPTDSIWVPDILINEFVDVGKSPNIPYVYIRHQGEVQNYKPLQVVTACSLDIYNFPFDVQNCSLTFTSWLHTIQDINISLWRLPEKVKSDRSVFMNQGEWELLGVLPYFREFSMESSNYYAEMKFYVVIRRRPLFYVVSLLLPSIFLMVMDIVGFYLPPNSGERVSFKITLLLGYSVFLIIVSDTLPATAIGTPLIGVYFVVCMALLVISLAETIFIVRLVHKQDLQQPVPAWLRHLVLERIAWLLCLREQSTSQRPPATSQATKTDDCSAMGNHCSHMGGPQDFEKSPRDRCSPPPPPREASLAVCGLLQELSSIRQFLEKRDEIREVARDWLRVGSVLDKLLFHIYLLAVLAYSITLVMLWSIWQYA
T5 sequence (Q9Y5N1 whole entry): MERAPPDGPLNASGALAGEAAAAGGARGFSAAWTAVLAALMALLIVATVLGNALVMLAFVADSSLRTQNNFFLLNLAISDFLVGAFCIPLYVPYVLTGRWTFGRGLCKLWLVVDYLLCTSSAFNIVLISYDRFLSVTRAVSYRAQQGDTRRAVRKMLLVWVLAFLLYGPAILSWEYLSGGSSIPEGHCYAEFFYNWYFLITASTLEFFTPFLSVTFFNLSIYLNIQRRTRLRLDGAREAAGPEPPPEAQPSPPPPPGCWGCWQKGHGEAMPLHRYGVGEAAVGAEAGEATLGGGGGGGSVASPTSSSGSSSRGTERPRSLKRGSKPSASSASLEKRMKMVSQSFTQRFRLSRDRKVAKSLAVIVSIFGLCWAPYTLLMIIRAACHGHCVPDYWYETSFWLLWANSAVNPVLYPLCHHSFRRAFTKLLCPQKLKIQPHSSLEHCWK
T3 sequence (P21728 whole entry): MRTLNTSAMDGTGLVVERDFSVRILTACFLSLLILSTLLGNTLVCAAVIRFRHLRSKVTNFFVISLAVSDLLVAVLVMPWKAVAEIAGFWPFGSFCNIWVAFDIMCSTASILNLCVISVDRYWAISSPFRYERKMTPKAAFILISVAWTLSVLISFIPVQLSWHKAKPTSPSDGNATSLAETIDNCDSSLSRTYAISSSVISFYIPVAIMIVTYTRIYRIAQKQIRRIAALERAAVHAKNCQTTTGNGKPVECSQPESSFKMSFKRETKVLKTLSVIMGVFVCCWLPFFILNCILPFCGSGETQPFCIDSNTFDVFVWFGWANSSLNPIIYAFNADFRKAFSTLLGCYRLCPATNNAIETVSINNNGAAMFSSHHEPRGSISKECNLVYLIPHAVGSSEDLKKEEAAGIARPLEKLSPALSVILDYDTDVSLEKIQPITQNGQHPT
T8 sequence (P35367 whole entry): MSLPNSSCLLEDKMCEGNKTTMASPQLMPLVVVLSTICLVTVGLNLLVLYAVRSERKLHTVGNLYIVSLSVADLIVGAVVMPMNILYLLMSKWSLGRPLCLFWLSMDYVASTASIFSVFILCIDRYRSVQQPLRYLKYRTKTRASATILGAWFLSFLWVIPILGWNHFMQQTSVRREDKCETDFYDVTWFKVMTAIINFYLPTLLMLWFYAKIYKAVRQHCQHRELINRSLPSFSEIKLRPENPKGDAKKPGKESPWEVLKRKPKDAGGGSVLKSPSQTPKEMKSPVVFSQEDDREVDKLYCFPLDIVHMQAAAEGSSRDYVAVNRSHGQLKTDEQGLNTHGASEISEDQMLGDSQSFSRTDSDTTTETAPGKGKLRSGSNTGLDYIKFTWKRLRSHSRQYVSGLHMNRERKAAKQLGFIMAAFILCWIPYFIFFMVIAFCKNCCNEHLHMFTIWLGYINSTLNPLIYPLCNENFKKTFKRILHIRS

Cc1ccc(CC(C)NC(C)C)cc1 (stereo not shown) [MMP, N-isopropyl-p-methylamphetamine]
Inhibition ratio (%) [1]: 0.22% | Inhibition ratio (%) (Adenosine A2): 1.64% | Inhibition ratio (%) (Dopamine D1): 6.90% | inhibition, other brain neuroreceptors [2]: < 50% | Inhibition ratio (%) (Histamine H2): 14.43% | Inhibition ratio (%) (Histamine H3): 3.82% | Inhibition ratio (%) (Nicotinic (neuronal)): 0.00% | Inhibition ratio (%) (GABA A (agonist site)): 3.62% | Inhibition ratio (%) (Muscarinic M1): 27.81% | Inhibition ratio (%) (Muscarinic M2): 23.38% | Inhibition ratio (%) (Histamine H1 (central)): 11.97% | mutagenic activity [3]: no mutagenic activity | Inhibition ratio (%) (Opiate (non-selective)): 4.92% | Inhibition ratio (%) (Serotonin 5HT3 (human)): 0.91% | Inhibition ratio (%) [4]: 42.47% | Inhibition ratio (%) (Glutamate (Ketamine)): 11.86% | Inhibition ratio (%) (Sigma (non-selective); 10 µM, radioligand [^3H]DTG, mean of duplicate): 86% and 85.89% | IC50 (Sigma (non-selective); competitive inhibition curve, [^3H]DTG, duplicate): 1100 nM | affinity for sigma receptor relative to existing sigma receptor ligand (haloperidol) (Sigma (non-selective); fraction of the affinity of haloperidol): approximately 1/100
